Results as given in patent publication US12611453B2, “Method of inducing an HIV-1-specific immune response using a chimpanzee adenovirus vector encoding an hivacat t-cell immunogen and TLR7 agonist” (Gilead Sciences, Inc., priority 2019, dated 2026).

Key:
Assay type in all cases: in vitro ADME
[1] = target: cytochrome P450 (CYP) 3A4 enzyme (CYP3A) (Homo sapiens, UniProt P08684); assay: in vitro metabolism by cytochrome P450 3A4
Description: (§1) Any ART agents known to inhibit or induce CYP3A, P-glycoprotein, or breast cancer resistance protein are excluded from use in this study during treatment (Period 1). For those participants who may be on a regimen including one of these medications, a regimen switch from one of the prohibited medication to an allowed medication is permitted between the screening and baseline visits. The following agents are excluded from the ART regimen during the study: HIV protease inhibitors (including low-dose ritonavir), cobicistat-containing regimens, elvitegravir, efavirenz, etravirine, and nevirapine.

CYP2C8 = target: T1, CYP2C8 (Homo sapiens, UniProt P10632); assay: in vitro metabolism by CYP2C8
T1 sequence (P10632 1-490): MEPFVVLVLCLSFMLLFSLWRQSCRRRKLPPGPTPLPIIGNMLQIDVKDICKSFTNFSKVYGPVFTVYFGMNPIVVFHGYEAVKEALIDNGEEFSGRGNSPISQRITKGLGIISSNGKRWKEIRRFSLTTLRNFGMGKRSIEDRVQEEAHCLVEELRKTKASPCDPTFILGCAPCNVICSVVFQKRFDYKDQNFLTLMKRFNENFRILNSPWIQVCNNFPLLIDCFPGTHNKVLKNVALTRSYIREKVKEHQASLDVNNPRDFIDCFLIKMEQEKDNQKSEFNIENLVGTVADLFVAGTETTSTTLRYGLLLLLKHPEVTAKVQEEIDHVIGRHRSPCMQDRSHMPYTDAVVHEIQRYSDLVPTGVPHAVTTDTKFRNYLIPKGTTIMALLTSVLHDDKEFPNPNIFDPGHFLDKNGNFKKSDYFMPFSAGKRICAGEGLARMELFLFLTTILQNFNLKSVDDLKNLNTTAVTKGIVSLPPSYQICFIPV
Description: as §1

P-glycoprotein = P-glycoprotein (Homo sapiens, UniProt P08183); assay: in vitro P-glycoprotein substrate assessment
Description: as §1

CYP2D6 = CYP2D6 (Homo sapiens, UniProt P10635); assay: in vitro metabolism by CYP2D6
[2] = target: T2, breast cancer resistance protein (Homo sapiens, UniProt Q9UNQ0); assay: in vitro breast cancer resistance protein substrate assessment
T2 sequence (Q9UNQ0 1-655): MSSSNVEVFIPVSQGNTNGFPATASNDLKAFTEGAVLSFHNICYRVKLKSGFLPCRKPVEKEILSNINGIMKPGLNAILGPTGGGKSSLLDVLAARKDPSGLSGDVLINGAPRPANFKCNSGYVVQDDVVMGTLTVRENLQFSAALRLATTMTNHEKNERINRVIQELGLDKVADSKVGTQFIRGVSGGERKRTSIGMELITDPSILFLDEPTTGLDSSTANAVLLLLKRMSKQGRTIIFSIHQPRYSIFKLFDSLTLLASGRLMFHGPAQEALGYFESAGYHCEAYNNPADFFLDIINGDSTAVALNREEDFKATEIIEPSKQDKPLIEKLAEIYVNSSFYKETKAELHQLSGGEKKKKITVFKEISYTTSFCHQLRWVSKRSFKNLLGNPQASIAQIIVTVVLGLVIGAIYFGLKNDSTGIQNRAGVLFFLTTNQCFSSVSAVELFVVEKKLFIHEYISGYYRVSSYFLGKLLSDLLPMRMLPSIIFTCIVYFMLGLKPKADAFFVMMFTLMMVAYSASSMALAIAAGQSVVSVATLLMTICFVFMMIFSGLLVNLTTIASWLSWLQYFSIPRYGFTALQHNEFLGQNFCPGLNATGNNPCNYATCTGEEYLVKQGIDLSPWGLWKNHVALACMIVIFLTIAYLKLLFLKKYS
Description: as §1

cytochrome P450 (CYP) 3A4 enzyme (CYP3A), sequence (P08684 whole entry): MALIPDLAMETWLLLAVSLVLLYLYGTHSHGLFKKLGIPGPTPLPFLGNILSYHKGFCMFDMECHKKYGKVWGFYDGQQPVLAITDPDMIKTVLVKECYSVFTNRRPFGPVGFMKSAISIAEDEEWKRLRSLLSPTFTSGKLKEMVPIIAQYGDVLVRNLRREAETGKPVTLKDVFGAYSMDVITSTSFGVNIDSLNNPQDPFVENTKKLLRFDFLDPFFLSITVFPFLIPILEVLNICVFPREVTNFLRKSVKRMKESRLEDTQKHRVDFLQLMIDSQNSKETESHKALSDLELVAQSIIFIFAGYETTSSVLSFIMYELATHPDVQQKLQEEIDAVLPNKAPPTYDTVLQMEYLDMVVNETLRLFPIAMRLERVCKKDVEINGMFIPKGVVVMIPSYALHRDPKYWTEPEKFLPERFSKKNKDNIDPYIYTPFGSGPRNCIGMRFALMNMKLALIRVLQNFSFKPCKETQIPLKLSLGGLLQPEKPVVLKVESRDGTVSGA
CYP2D6, sequence (P10635 whole entry): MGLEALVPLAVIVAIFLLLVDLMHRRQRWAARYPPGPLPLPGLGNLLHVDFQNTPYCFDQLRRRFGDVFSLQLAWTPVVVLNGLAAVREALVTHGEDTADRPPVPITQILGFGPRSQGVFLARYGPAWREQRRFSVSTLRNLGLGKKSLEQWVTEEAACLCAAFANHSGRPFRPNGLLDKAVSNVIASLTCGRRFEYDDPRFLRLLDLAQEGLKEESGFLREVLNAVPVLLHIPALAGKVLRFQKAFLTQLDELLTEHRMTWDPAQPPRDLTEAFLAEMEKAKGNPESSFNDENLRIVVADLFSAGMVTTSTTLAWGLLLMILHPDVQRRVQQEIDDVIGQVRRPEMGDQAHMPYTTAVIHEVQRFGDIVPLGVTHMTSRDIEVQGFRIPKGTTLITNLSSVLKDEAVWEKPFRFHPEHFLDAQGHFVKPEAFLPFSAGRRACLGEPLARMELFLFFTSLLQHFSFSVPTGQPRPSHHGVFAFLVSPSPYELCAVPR
P-glycoprotein, sequence (P08183 whole entry): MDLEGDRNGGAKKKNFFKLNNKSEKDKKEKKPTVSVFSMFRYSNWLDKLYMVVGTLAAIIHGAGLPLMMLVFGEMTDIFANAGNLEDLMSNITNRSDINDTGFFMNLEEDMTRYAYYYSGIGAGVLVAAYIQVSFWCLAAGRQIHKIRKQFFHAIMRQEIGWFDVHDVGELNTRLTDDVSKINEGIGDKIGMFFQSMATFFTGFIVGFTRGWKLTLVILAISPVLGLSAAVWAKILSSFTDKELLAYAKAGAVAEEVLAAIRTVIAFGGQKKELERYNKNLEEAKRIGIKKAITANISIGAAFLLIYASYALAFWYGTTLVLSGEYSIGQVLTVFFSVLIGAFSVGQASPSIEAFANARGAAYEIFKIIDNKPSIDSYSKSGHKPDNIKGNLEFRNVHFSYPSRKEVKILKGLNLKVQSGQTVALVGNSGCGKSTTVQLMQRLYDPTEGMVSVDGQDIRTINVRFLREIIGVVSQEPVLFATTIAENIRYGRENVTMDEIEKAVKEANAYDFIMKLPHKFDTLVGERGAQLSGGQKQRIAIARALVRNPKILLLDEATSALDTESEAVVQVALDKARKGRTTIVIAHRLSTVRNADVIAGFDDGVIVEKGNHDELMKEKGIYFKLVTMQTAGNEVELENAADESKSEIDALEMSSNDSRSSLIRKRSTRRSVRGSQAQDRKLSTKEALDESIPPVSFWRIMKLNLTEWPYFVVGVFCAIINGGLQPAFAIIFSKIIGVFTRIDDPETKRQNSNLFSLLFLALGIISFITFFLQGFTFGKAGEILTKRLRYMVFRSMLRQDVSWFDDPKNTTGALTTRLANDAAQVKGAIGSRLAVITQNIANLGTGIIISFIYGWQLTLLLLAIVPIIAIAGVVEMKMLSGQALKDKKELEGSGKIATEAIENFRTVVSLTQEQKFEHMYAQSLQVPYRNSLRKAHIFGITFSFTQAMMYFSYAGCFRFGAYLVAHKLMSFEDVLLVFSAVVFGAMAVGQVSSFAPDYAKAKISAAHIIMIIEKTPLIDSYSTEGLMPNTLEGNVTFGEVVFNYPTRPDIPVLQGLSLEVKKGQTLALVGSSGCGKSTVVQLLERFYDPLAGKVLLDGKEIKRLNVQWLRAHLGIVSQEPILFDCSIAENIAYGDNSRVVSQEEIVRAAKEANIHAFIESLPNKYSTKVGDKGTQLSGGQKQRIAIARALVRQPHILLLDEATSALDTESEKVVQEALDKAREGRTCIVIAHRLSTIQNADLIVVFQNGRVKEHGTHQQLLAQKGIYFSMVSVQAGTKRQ

## CCCCOc1nc(N)c2c(n1)N(Cc1cccc(CN3CCCC3)c1)CC(=O)N2 [compound of Formula (I)]
[1]
  metabolism by CYP3A4 (contribution to metabolism): predominantly metabolized
CYP2C8
  metabolism by CYP2C8 (contribution to metabolism): minor contributions
P-glycoprotein
  substrate of P-glycoprotein: substrate
CYP2D6
  metabolism by CYP2D6 (contribution to metabolism): minor contributions
[2]
  substrate of breast cancer resistance protein: substrate
